Laboratory results from US7238689B2, “Isoxazoline derivative and herbicide comprising the same as active ingredient” (Ihara Chemical Industry Co., Ltd., priority 2001, dated 2007).

Experiments:
[1] = system: Monochoria vaginalis (Murm. f.) Presl var. plantaginea (Roxb.) Solms-Laub.; assay: Herbicidal effect by paddy field soil treatment; assay type: in vivo; set-up: scale not given here; settings: wettable powder, active ingredient 1000 g/ha, examined at the 21st day from the treatment
In short: (§1)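 Seeds sown in puddled paddy soil under 3 cm of water; the next day wettable powders diluted in water were dropped onto the water surface at 1,000 g active ingredient/ha. Plants grown in a greenhouse, with herbicidal effect scored on day 21 against a rating standard.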

[2] = system: Echinochloa oryzicola Vasing; assay: Herbicidal effect by paddy field soil treatment; assay type: in vivo; set-up: scale not given here; settings: wettable powder, active ingredient 1000 g/ha, examined at the 21st day from the treatment
In short: as §1

[3] = system: Setaria viridis (L.) Beauv.; assay: Herbicidal effect by upland field soil treatment; assay type: in vivo; set-up: scale not given here; settings: active ingredient 1000 g/ha, examined at 21st day from treatment
From the text: (§2) An upland field soil was filled in a plastic pot of 80 cm^2. Seeds of Echinochloa crus-galli (L.) Beauv. var. crusgalli and Setaria viridis (L.) Beauv. were sowed, followed by covering with the same soil. […] Then, breeding was made in a greenhouse, and the herbicidal effect of each wettable powder was examined at the 21st day from the treatment in accordance with the standard shown in Table 21.

[4] = system: Echinochloa crus-galli (L.) Beauv. var. crusgalli; assay: Herbicidal effect by upland field soil treatment; assay type: in vivo; set-up: scale not given here; settings: active ingredient 1000 g/ha, examined at 21st day from treatment
From the text: as §2

[5] = system: Setaria viridis (L.) Beauv.; assay: Herbicidal effect by upland foliage treatment; assay type: in vivo; set-up: scale not given here; settings: active ingredient 1000 g/ha, examined at 14th day from treatment
In short: (§3)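 Two-week-old greenhouse plants in sand were sprayed over the whole foliage with water-diluted wettable powder at 1,000 liters per hectare, giving 1,000 g active ingredient per hectare. Herbicidal effect scored on a rating standard at day 14 after treatment.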

[6] = system: Echinochloa crus-galli (L.) Beauv. var. crus-galli; assay: Herbicidal effect by upland foliage treatment; assay type: in vivo; set-up: scale not given here; settings: active ingredient 1000 g/ha, examined at 14th day from treatment
In short: as §3

Structure (SMILES) | Herbicidal effect index, Monochoria vaginalis (Burm. F.) Presl var. plantaginea (Roxb.) Solms-Laub. [1] | Herbicidal effect index, Echinochloa oryzicola Vasing [2] | herbicidal effect (index per standard of Table 21), Setaria viridis (L.) Beauv. [3] | herbicidal effect (index per standard of Table 21), Echinochloa curs-galli (L.) Beauv. Var. crus-galli [4] | melting point [°C] | herbicidal effect (index per standard of Table 21), Setaria viridis (L.) Beauv. [5] | herbicidal effect (index per standard of Table 21), Echinochloa curs-galli (L.) Beauv. Var. crus-galli [6]
CON=C(C)c1c(C)sc(C)c1CS(=O)(=O)C1=NOC(C)(C)C1 [2-0001, 5,5-dimethyl-3-[2,5-dimethyl-4-(1-methoxyiminoethyl)-thiophen-3-ylmethylsulfonyl]-2-isoxazoline] | 5 | 5 | 5 | 5 | 95 to 96 | 4 | 5
CC1(C)CC(SCc2c(C(F)(F)F)nn(C(F)F)c2Cl)=NO1 [3-0008, 3-(5-chloro-1-difluoromethyl-3-trifluoromethyl-1H-pyrazol-4-ylmethylthio)-5,5-dimethyl-2-isoxazoline] |  |  | 5 | 5 | 41 to 42 | 4 | 4
CC1(C)CC(S(=O)(=O)Cc2c(C(F)(F)F)nn(C(F)F)c2Cl)=NO1 [3-0010, 3-(5-chloro-1-difluoromethyl-3-trifluoromethyl-1H-pyrazol-4-ylmethylsulfonyl)-5,5-dimethyl-2-isoxazoline] |  |  |  |  | 126 to 127 | 4 | 5
CC1(C)CC(S(=O)(=O)Cc2c(Cl)nn(C(F)F)c2C(F)(F)F)=NO1 [3-0011, 3-(3-chloro-1-difluoromethyl-5-trifluoromethyl-1H-pyrazol-4-ylmethylsulfonyl)-5,5-dimethyl-2-isoxazoline] |  |  |  |  | 136 to 137 | 4 | 5
COc1c(CS(=O)(=O)C2=NOC(C)(C)C2)c(C(F)(F)F)nn1C [3-0013, 5,5-dimethyl-3-(5-methoxy-1-methyl-3-trifluoromethyl-1H-pyrazol-4-ylmethylsulfonyl)-2-isoxazoline] | 5 | 5 | 5 | 5 | 113 to 114 | 5 | 5
Cn1nc(C(F)(F)F)c(CS(=O)(=O)C2=NOC(C)(C)C2)c1OC1CCCC1 [3-0015, 3-(5-cyclopentyloxy-1-methyl-3-trifluoromethyl-1H-pyrazol-4-ylmethylsulfonyl)-5,5-dimethyl-2-isoxazoline] | 5 | 5 | 5 | 5 | 113 to 114 | 4 | 5
